Results reported in PubChem BioAssay (NCI).
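GI50 marks 50% less growth. At the TGI there is no net growth.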

How the values were obtained:
Test in all cases: DTP human tumour cell line panel, 384-well format
[1] = test system: PC-3 prostate
[2] = test system: MDA-MB-468 breast
[3] = test system: BT-549 breast
[4] = test system: U251 glioblastoma
[5] = test system: HT29 colon
[6] = test system: SW-620 colon
[7] = test system: A498 renal
[8] = test system: CAKI-1 renal
[9] = test system: SNB-19 CNS
[10] = test system: 786-0 renal
[11] = test system: IGROV1 ovarian
[12] = test system: SF-268 CNS
[13] = test system: LOX IMVI melanoma
[14] = test system: MDA-MB-231 breast
[15] = test system: OVCAR-4 ovarian
[16] = test system: T-47D breast
[17] = test system: MALME-3M melanoma
[18] = test system: SK-MEL-5 melanoma
[19] = test system: TK-10 renal
[20] = test system: HOP-62 NSCLC
[21] = test system: SNB-75 CNS
[22] = test system: MOLT-4 leukemia
[23] = test system: UACC-62 melanoma
[24] = test system: HS 578T breast
[25] = test system: KM12 colon
[26] = test system: SK-MEL-28 melanoma
[27] = test system: MDA-MB-435 melanoma
[28] = test system: MCF7 breast
[29] = test system: SK-OV-3 ovarian
[30] = test system: RXF 393 renal
[31] = test system: CCRF-CEM leukemia
[32] = test system: HCT-116 colon
[33] = test system: HOP-92 NSCLC
[34] = test system: SN12C renal
[35] = test system: OVCAR-8 ovarian
[36] = test system: OVCAR-5 ovarian
[37] = test system: SK-MEL-2 melanoma
[38] = test system: NCI-H322M lung
[39] = test system: SR leukemia
[40] = test system: K-562 leukemia
[41] = test system: OVCAR-3 ovarian
[42] = test system: NCI-H23 lung
[43] = test system: A549 NSCLC
[44] = test system: DU-145 prostate
[45] = test system: HCT-15 colon
[46] = test system: NCI/ADR-RES ovarian
[47] = test system: SF-539 CNS

## CC(C)Nc1cc(-c2c[nH]c(C(=O)N[C@H](CO)c3cccc(Cl)c3)c2)c(Cl)cn1
[1]
  GI50: 7.81 µM
  TGI: 21.3 µM
[2]
  GI50: 6.13 µM
  TGI: 16.1 µM
[3]
  GI50: 3.37 µM
  TGI: 15.4 µM
[4]
  GI50: 2000 nM
  TGI: 15.8 µM
[5]
  GI50: 0.289 µM
  TGI: 13.2 µM
[6]
  GI50: 130 nM
  TGI: 1820 nM
[7]
  GI50: 1.76 µM
  TGI: 12.7 µM
[8]
  GI50: 1.04 µM
  TGI: 16.5 µM
[9]
  GI50: 9.24 µM
  TGI: 22.5 µM
[10]
  GI50: 3.58 µM
  TGI: 17.1 µM
[11]
  GI50: 496 nM
  TGI: 7.2 µM
[12]
  GI50: 11 µM
  TGI: 23 µM
[13]
  GI50: 0.184 µM
  TGI: 883 nM
[14]
  GI50: 1.37 µM
  TGI: 17.1 µM
[15]
  GI50: 11.6 µM
  TGI: 24 µM
[16]
  GI50: 9.03 µM
  TGI: 21.9 µM
[17]
  GI50: 0.0197 µM
  TGI: 76 nM
[18]
  GI50: 0.265 µM
  TGI: 2040 nM
[19]
  GI50: 2600 nM
  TGI: 17.3 µM
[20]
  GI50: 3.19 µM
  TGI: 19.4 µM
[21]
  GI50: 13.4 µM
  TGI: 26.2 µM
[22]
  GI50: 1.66 µM
  TGI: 6.58 µM
[23]
  GI50: 0.0563 µM
  TGI: 895 nM
[24]
  GI50: 10.5 µM
  TGI: 22.3 µM
[25]
  GI50: 0.547 µM
  TGI: 12.8 µM
[26]
  GI50: 0.12 µM
  TGI: 509 nM
[27]
  GI50: 0.314 µM
  TGI: 13.4 µM
[28]
  GI50: 3.72 µM
  TGI: 15.9 µM
[29]
  GI50: 6.86 µM
  TGI: 19.6 µM
[30]
  GI50: 4140 nM
  TGI: 16.5 µM
[31]
  GI50: 2.89 µM
  TGI: 12.5 µM
[32]
  GI50: 0.231 µM
  TGI: 3.11 µM
[33]
  GI50: 0.445 µM
  TGI: 2.13 µM
[34]
  GI50: 6.15 µM
  TGI: 21.4 µM
[35]
  GI50: 5.72 µM
  TGI: 19.5 µM
[36]
  GI50: 567 nM
  TGI: 16.2 µM
[37]
  GI50: 0.186 µM
  TGI: 0.467 µM
[38]
  GI50: 2.88 µM
  TGI: 19.4 µM
[39]
  GI50: 1.01 µM
  TGI: 2.21 µM
[40]
  GI50: 1.45 µM
  TGI: 13.4 µM
[41]
  GI50: 4.95 µM
  TGI: 19.6 µM
[42]
  GI50: 0.132 µM
  TGI: 4.12 µM
[43]
  GI50: 0.641 µM
  TGI: 13.4 µM
[44]
  GI50: 9.92 µM
  TGI: 24.3 µM
[45]
  GI50: 4.5 µM
  TGI: 17.9 µM
[46]
  GI50: 9.98 µM
  TGI: 22.2 µM
[47]
  GI50: 4.36 µM
  TGI: 16.2 µM

## CC[C@H](Nc1ncnc2nc[nH]c12)c1nc2cccc(F)c2c(=O)n1-c1ccccc1
[1]
  GI50: 6.18 µM
  TGI: > 100 µM
[2]
  GI50: 4.58 µM
  TGI: 15.9 µM
[3]
  GI50: 4.22 µM
  TGI: 48.1 µM
[4]
  GI50: > 71400 nM
  TGI: > 100 µM
[5]
  GI50: 58.2 µM
  TGI: > 100 µM
[6]
  GI50: > 75800 nM
  TGI: > 100000 nM
[7]
  GI50: 4.38 µM
  TGI: 23 µM
[8]
  GI50: 7.37 µM
  TGI: > 67.4 µM
[9]
  GI50: > 74.4 µM
  TGI: > 100 µM
[10]
  GI50: 10.6 µM
  TGI: > 100 µM
[11]
  GI50: 4310 nM
  TGI: 14.9 µM
[12]
  GI50: 25.6 µM
  TGI: > 100 µM
[13]
  GI50: 43.2 µM
  TGI: > 100000 nM
[14]
  GI50: 73.6 µM
  TGI: > 100 µM
[15]
  GI50: 64.6 µM
  TGI: > 100 µM
[16]
  GI50: 5.22 µM
  TGI: 56.4 µM
[17]
  GI50: 20.8 µM
  TGI: > 89100 nM
[18]
  GI50: 7.4 µM
  TGI: > 45700 nM
[19]
  GI50: > 38300 nM
  TGI: > 94.5 µM
[20]
  GI50: > 59.5 µM
  TGI: > 100 µM
[21]
  GI50: 0.783 µM
  TGI: 6.15 µM
[22]
  GI50: 10 µM
  TGI: 22.1 µM
[23]
  GI50: 19.4 µM
  TGI: > 100000 nM
[24]
  GI50: 12.5 µM
  TGI: 50.3 µM
[25]
  GI50: 24.2 µM
  TGI: > 100 µM
[26]
  GI50: 27.5 µM
  TGI: > 100000 nM
[27]
  GI50: 25.6 µM
  TGI: 57.1 µM
[28]
  GI50: 7.96 µM
  TGI: 69.5 µM
[29]
  GI50: 30.6 µM
  TGI: > 83.3 µM
[30]
  GI50: 1400 nM
  TGI: 9.61 µM
[31]
  GI50: 5.93 µM
  TGI: 25.8 µM
[32]
  GI50: 39.9 µM
  TGI: > 100 µM
[33]
  GI50: 12.2 µM
  TGI: 98.5 µM
[34]
  GI50: 16.6 µM
  TGI: > 100 µM
[35]
  GI50: 50.3 µM
  TGI: > 100 µM
[36]
  GI50: > 57400 nM
  TGI: > 100 µM
[37]
  GI50: 24 µM
  TGI: 70.8 µM
[38]
  GI50: 34.7 µM
  TGI: > 100 µM
[39]
  GI50: 16.2 µM
  TGI: 32.6 µM
[40]
  GI50: 24 µM
  TGI: 82.9 µM
[41]
  GI50: 8.68 µM
  TGI: > 73.4 µM
[42]
  GI50: 38.2 µM
  TGI: > 100 µM
[43]
  GI50: 32 µM
  TGI: > 100 µM
[44]
  GI50: 45 µM
  TGI: > 100 µM
[45]
  GI50: 30.1 µM
  TGI: > 100 µM
[46]
  GI50: 54.7 µM
  TGI: > 100 µM
[47]
  GI50: 33.2 µM
  TGI: > 100 µM
